Measurements: patent US8058242B2, “Chimeric proteins with natriuretic activity” (The University of Queensland, priority 2004, dated 2011)
Positions of bridges follow the written chain, without caps; N, C: chain ends. Residues, ends and D or L forms follow the SMILES beside them.

Tested on: CHF-induced sheep
Assay: Ovine model of tachycardia induced congestive heart failure (Example 9)
Assay type: in vivo
Source text: All procedures conform with the Guide for the Care and Use of Laboratory Animals published by the US National Institutes of Health (NIH Publication No. 82-23, revised 1996). Six adult crossbred sheep (weight, 50 to 55 kg) were implanted with pacemakers under isoflurane anesthesia and oxygen. A bipolar screw fixation ventricular pacing lead was placed transvenously under fluoroscopic guidance in the apex of the right ventricle. The proximal end of the lead was connected to pacemakers reprogrammed for high-rate pacing (Sigma, Medtronic) that were positioned subcutaneously in the lateral aspect of the neck. Oxytetracycline (5 mL), an antibiotic, and flunixin meglumine (1 mL), an analgesic, were administered subcutaneously prophylactically on the day of surgery. After 3 days of recovery, right ventricular pacing was initiated at 180 bpm and continued for 4 weeks to induce CHF (NYHC III). Animals were anesthetized and an echocardiographic examination and a conductance catheter evaluation were performed.
Animals were randomized to either TNPc or ANP on two consecutive days, according to the schedule in Table 11B. Studies were conducted over a period of 4 days with two study groups.
On the day of the first experiment, after a control period in which baseline measurements were made, drug infusion via a fore-leg vein using new calibrated Terumo syringe pumps was commenced (TNPc or ANP randomized to days 1 or 2) at 2, 4 and 6 pmol/min/kg, each for 30 min. Echocardiographic and conductance catheter evaluations were performed at 30 min after each drug level. On the second day, the experiment was repeated with the other drug (either TNPc or […] according to day 1 treatment) at 2, 4 and 6 pmol/min, each for 30 min and echocardiographic and conductance catheter evaluations were performed at 30 min after each drug level. The animal was euthanased at the conclusion of the experiment. Stock solutions of each peptide were made up under sterile conditions using sterile saline, were protected from light with aluminium foil and kept refrigerated.
Left ventricular (LV) ejection fraction was monitored by echocardiography and the conductance catheter was used to measure LV dP/i, LV end diastolic pressure, LV ESPVR, heart rate and mean arterial pressure (MAP). Values were expressed as mean +/−SEM and were analyzed by Students t-test. A value of p<0.05 was considered significant.

CC[C@H](C)[C@H](NC(=O)[C@H](CCCCN)NC(=O)[C@H](CO)NC(=O)[C@H](CC(=O)O)NC(=O)[C@@H](N)CO)C(=O)NCC(=O)N[C@@H](CC(N)=O)C(=O)NCC(=O)N[C@H]1CSSC[C@@H](C(=O)N[C@@H](CC(N)=O)C(=O)N[C@@H](CCCNC(=N)N)C(=O)N[C@H](C(=O)N[C@@H](CCSC)C(=O)N[C@@H](CCC(N)=O)C(=O)N[C@@H](CC(N)=O)C(=O)N2CCC[C@H]2C(=O)N2CCC[C@H]2C(=O)N[C@@H](CCCCN)C(=O)N[C@@H](CCCCN)C(=O)N[C@@H](Cc2ccccc2)C(=O)N[C@@H](CO)C(=O)NCC(=O)N[C@@H](CCC(=O)O)C(=O)O)[C@@H](C)CC)NC(=O)CNC(=O)[C@H](CC(C)C)NC(=O)CNC(=O)[C@H](CO)NC(=O)[C@H](C(C)C)NC(=O)[C@H](CO)NC(=O)CNC(=O)[C@H]([C@@H](C)CC)NC(=O)[C@H](CCCNC(=N)N)NC(=O)[C@H](CC(=O)O)NC(=O)[C@H](CC(C)C)NC(=O)[C@@H]2CCCN2C(=O)[C@H](Cc2ccccc2)NC(=O)CNC(=O)[C@H](Cc2ccccc2)NC1=O [TNPc] (H-SDSKIGNGCFGFPLDRIGSVSGLGCNRIMQNPPKKFSGE-OH; disulfide 9-25)
reduction of −dp/dt (TNPc infusion): 27%
+dP/dt (high dose infusion): 1078.00
EDP (high dose infusion): 4.17
ESPR slope (high dose infusion): 3.78
ejection fraction (high dose infusion): 61.83
heart rate (high dose infusion): 100.67
−dP/dt (high dose infusion): 1298.00
+dP/dt (low dose infusion): 1079.67
EDP (low dose infusion): 5.83
ESPR slope (low dose infusion): 2.72
ejection fraction (low dose infusion): 48.17
heart rate (low dose infusion): 98.00
−dP/dt (low dose infusion): 1469.50
+dP/dt (recovery (30 min)): 1064.83
EDP (recovery (30 min)): 7.67
ESPR slope (recovery (30 min)): 3.35
ejection fraction (recovery (30 min)): 42.33
heart rate (recovery (30 min)): 98.00
−dP/dt (recovery (30 min)): 1201.50

CC[C@H](C)[C@@H]1NC(=O)[C@H](CCCNC(=N)N)NC(=O)[C@H](CC(=O)O)NC(=O)[C@H](CCSC)NC(=O)[C@H](CCCNC(=N)N)NC(=O)CNC(=O)CNC(=O)[C@H](Cc2ccccc2)NC(=O)[C@@H](NC(=O)[C@H](CO)NC(=O)[C@H](CO)NC(=O)[C@H](CCCNC(=N)N)NC(=O)[C@H](CCCNC(=N)N)NC(=O)[C@H](CC(C)C)NC(=O)[C@@H](N)CO)CSSC[C@@H](C(=O)N[C@@H](CC(N)=O)C(=O)N[C@@H](CO)C(=O)N[C@@H](Cc2ccccc2)C(=O)N[C@@H](CCCNC(=N)N)C(=O)N[C@@H](Cc2ccc(O)cc2)C(=O)O)NC(=O)CNC(=O)[C@H](CC(C)C)NC(=O)CNC(=O)[C@H](CO)NC(=O)[C@H](CCC(N)=O)NC(=O)[C@H](C)NC(=O)CNC1=O [hANP, reference compound]
+dP/dt (high dose infusion): 1047.00
EDP (high dose infusion): 3.33
ESPR slope (high dose infusion): 3.04
ejection fraction (high dose infusion): 54.50
heart rate (high dose infusion): 96.33
−dP/dt (high dose infusion): 1332.17
+dP/dt (low dose infusion): 949.33
EDP (low dose infusion): 5.83
ESPR slope (low dose infusion): 2.85
ejection fraction (low dose infusion): 42.17
heart rate (low dose infusion): 91.00
−dP/dt (low dose infusion): 1336.50
+dP/dt (recovery (30 min)): 1035.83
EDP (recovery (30 min)): 6.33
ESPR slope (recovery (30 min)): 3.44
ejection fraction (recovery (30 min)): 41.00
heart rate (recovery (30 min)): 91.00
−dP/dt (recovery (30 min)): 1232.17
